# From patent US8173682B2, “Substituted pyridones as inhibitors of poly(ADP-ribose) polymerase (PARP)” (Aventis Pharmaceuticals Inc., priority 2004, dated 2012)
# Counter-ions that a name gives are not always drawn.
# Biological target: recombinantly expressed human PARP-1 enzyme (Homo sapiens, UniProt P09874)
# Test: PARP enzyme assay, Method B (tritium-labeled NAD incorporation)
# Type: biochemical
# Settings: Method B; 200 μM NAD, room temperature 1 hour, pH 8.0; read-out: IC50 (μM)/Method B
# Method: Method B: PARP Enzyme Assay:
# The IC50 is determined in this method by incubating the substances to be tested with the DNA-activated, recombinantly expressed and purified PARP-1 enzyme. Specifically, various concentrations of the test substance are incubated in 50 μL of reaction solution, which contains 50 mM Tris, 5 mM MgCl2, 1 mM DTT, 200 μM NAD, 0.1 m Ci/mL tritium-labeled NAD, 0.1 mg/mL DNA, 0.1 mg/mL histones, 2 μg/mL recombinantly expressed human PARP-1 enzyme, pH=8.0, at room temperature for 1 hour. The reaction is stopped by adding 150 μL of 20% trichloroacetic acid, and the radiolabeled protein constituents are precipitated. After incubation on ice for 10 minutes, the labeled, insoluble constituents are separated off through a glass fiber filter and, after washing with 20% trichloroacetic acid three times, the radioactivity incorporated by the PARP-1 enzyme is measured by radioluminescence. Consideration of the incorporation rates determined in this way as a function of the concentration of the test substance results in IC50 as the concentration of the test substance which reduces the incorporation rate to half the maximum value attainable (incubation without inhibitor).
# The IC50 (fifty percent inhibitory concentration of the test substance in a solution—expressed at micromolar (μM) concentration) measured in accordance with these procedures for the compounds of this invention are summarized in Table 1.
# Sequence of recombinantly expressed human PARP-1 enzyme (P09874 whole entry): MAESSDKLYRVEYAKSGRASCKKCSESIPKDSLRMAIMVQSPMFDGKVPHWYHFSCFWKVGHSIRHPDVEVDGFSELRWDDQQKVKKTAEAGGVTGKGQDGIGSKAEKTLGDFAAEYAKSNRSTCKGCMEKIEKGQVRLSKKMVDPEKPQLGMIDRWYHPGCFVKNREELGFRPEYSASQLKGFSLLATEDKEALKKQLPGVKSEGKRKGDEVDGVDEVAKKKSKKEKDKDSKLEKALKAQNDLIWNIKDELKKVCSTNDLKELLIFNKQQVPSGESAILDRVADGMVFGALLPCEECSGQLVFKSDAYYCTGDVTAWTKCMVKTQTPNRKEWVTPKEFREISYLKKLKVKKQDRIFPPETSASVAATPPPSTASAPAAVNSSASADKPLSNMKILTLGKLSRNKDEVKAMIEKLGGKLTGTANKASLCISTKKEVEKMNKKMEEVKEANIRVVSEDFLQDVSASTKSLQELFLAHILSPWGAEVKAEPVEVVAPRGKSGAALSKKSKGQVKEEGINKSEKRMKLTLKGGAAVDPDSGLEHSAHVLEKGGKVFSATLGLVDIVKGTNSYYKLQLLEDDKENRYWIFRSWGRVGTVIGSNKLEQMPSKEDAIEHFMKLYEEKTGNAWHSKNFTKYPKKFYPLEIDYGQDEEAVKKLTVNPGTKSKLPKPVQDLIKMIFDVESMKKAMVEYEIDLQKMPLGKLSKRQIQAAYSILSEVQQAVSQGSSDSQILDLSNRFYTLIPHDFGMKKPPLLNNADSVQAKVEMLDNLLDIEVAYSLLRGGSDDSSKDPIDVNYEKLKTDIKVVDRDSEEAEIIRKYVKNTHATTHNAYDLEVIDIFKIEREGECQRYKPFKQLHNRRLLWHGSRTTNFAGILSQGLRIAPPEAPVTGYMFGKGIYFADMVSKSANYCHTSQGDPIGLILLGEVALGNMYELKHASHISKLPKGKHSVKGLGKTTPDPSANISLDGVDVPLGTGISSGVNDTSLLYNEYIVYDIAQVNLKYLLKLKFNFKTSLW
row,IC50,Compound
1,0.57 µM,"CCc1cc(-c2cccc(C(=O)NCCc3ccc([N+](=O)[O-])cc3)n2)c(C)[nH]c1=O [Example 205, 5′-Ethyl-2′-methyl-6′-oxo-1′,6′-dihydro-[2,3′]bipyridinyl-6-carboxylic acid [2-(4-nitro-phenyl)-ethyl]-amide]"
2,0.62 µM,"CCc1cc(-c2cncc(C(=O)Nc3cc(C(C)(C)C)[nH]n3)c2)c(C)[nH]c1=O [Example 258, 5′-Ethyl-2′-methyl-6′-oxo-1′,6′-dihydro-[3,3′]bipyridinyl-5-carboxylic acid (5-tert-butyl-1H-pyrazol-3-yl)-amide]"
3,2.22 µM,"CCc1cc(-c2cncc(C(=O)NCC3CCC(C#N)CC3)c2)c(C)[nH]c1=O (stereo not shown) [Example 262, 5′-Ethyl-2′-methyl-6′-oxo-1′,6′-dihydro-[3,3′]bipyridinyl-5-carboxylic acid (4-cyano-cyclohexylmethyl)-amide]"
4,14.8 µM,"CCc1cc(-c2ccc(C(=O)NCc3ccccn3)cn2)c(C)[nH]c1=O [Example 208, 5′-Ethyl-2′-methyl-6′-oxo-1′,6′-dihydro-[2,3′]bipyridinyl-5-carboxylic acid (pyridin-2-ylmethyl)-amide]"
5,2.11 µM,"CCc1cc(-c2ccc(CN(C)Cc3ccccc3)o2)c(C)[nH]c1=O [Example 179, 5-{5-[(Benzylmethylamino)methyl]furan-2-yl)-3-ethyl-6-methyl-1H-pyridin-2-one]"
6,0.51 µM,"CCc1cc(-c2ccc(C=NO)o2)c(C)[nH]c1=O [Example 199A, 5-(5-Ethyl-2-methyl-6-oxo-1,6-dihydro-pyridin-3-yl)-furan-2-carbaldehyde oxime]"
7,0.8 µM,"CCc1cc(-c2cncc(C(=O)N[C@H]3CC=CC[C@H]3C(N)=O)c2)c(C)[nH]c1=O [Example 260, 5′-Ethyl-2′-methyl-6′-oxo-1′,6′-dihydro-[3,3′]bipyridinyl-5-carboxylic acid ((1S,6R)-6-carbamoyl-cyclohex-3-enyl)-amide]"
8,1.98 µM,"CCc1cc(-c2cncc(C(=O)N(CC)CC)c2)c(C)[nH]c1=O [Example 227, 5′-Ethyl-2′-methyl-6′-oxo-1′,6′-dihydro-[3,3′]bipyridinyl-5-carboxylic acid diethylamide]"
9,2.29 µM,"CCc1cc(-c2cncc(C(=O)NCCc3ccc(C(=O)O)cc3)c2)c(C)[nH]c1=O [Example 243, 4-{2-[(5′-Ethyl-2′-methyl-6′-oxo-1′,6′-dihydro-[3,3′]bipyridinyl-5-carbonyl)-amino]-ethyl}-benzoic acid]"
10,10.7 µM,"CCc1cc(-c2cncc(C(=O)NC(c3cccnc3)C3CC3)c2)c(C)[nH]c1=O (stereo not shown) [Example 228, 5′-Ethyl-2′-methyl-6′-oxo-1′,6′-dihydro-[3,3′]bipyridinyl-5-carboxylic acid (cyclopropyl-pyridin-3-yl-methyl)-amide]"
11,1.03 µM,"CCc1cc(-c2ccc(CO)o2)c(C)[nH]c1=O [Example 200A, 3-Ethyl-5-(5-hydroxymethyl-furan-2-yl)-6-methyl-1H-pyridin-2-one]"
12,0.95 µM,"CCc1cc(-c2cncc(C(=O)N3CCCC3)c2)c(C)[nH]c1=O [Example 226, 5-Ethyl-2-methyl-5′-(pyrrolidine-1-carbonyl)-1H-[3,3′]bipyridinyl-6-one]"
13,11.7 µM,"CCc1cc(-c2cncc(C(=O)NCCN3C(=O)CSC3=O)c2)c(C)[nH]c1=O [Example 254, 5′-Ethyl-2′-methyl-6′-oxo-1′,6′-dihydro-[3,3′]bipyridinyl-5-carboxylic acid [2-(2,4-dioxo-thiazolidin-3-yl)-ethyl]-amide]"
14,1.4 µM,"CCc1cc(-c2ccc(CNC(=O)c3ccccn3)o2)c(C)[nH]c1=O [Example 273, Pyridine-2-carboxylic acid [5-(5-ethyl-2-methyl-6-oxo-1,6-dihydro-pyridin-3-yl)-furan-2-ylmethyl]-amide]"
15,0.3 µM,"CCc1cc(-c2ccc(CNCc3cnn(C)c3)o2)c(C)[nH]c1=O [Example 182D, 3-Ethyl-6-methyl-5-(5-{[(1-methyl-1H-pyrazol-4-ylmethyl)-amino]-methyl}-furan-2-yl)-1H-pyridin-2-one]"
16,0.44 µM,"CCc1cc(-c2ccc(S(=O)(=O)NCc3ccccn3)s2)c(C)[nH]c1=O [Example 31, 5-(5-Ethyl-2-methyl-6-oxo-1,6-dihydropyridin-3-yl)thiophene-2-sulfonic acid (pyridin-2-yl)methylamide hydrochloride]"
17,0.44 µM,"CCc1cc(-c2ccc(CNC(=O)c3ccc(OC)cc3)o2)c(C)[nH]c1=O [Example 272, N-[5-(5-Ethyl-2-methyl-6-oxo-1,6-dihydro-pyridin-3-yl)-furan-2-ylmethyl]-4-methoxy-benzamide]"

row,IC50,Compound
1,12.9 µM,"CCc1cc(-c2ccc(C(=O)NC3CCCC3)cn2)c(C)[nH]c1=O [Example 212, 5′-Ethyl-2′-methyl-6′-oxo-1′,6′-dihydro-[2,3′]bipyridinyl-5-carboxylic acid cyclopentylamide]"
2,3.88 µM,"CCc1cc(-c2cncc(C(=O)NCCc3cccc(OC)c3)c2)c(C)[nH]c1=O [Example 240, 5′-Ethyl-2′-methyl-6′-oxo-1′,6′-dihydro-[3,3′]bipyridinyl-5-carboxylic acid [2-(3-methoxy-phenyl)-ethyl]-amide]"
3,0.92 µM,"CCCCNC(=O)c1cncc(-c2cc(CC)c(=O)[nH]c2C)c1 [Example 223, 5′-Ethyl-2′-methyl-6′-oxo-1′,6′-dihydro-[3,3′]bipyridinyl-5-carboxylic acid butylamide]"
4,1.79 µM,"CCc1cc(-c2cncc(C(=O)NCCC3CCOCC3)c2)c(C)[nH]c1=O [Example 242, 5′-Ethyl-2′-methyl-6′-oxo-1′,6′-dihydro-[3,3′]bipyridinyl-5-carboxylic acid [2-(tetrahydro-pyran-4-yl)-ethyl]-amide]"
5,0.85 µM,"CCc1cc(-c2cncc(C(=O)Nc3cccc(OC)c3)c2)c(C)[nH]c1=O [Example 248, 5′-Ethyl-2′-methyl-6′-oxo-1′,6′-dihydro-[3,3′]bipyridinyl-5-carboxylic acid (3-methoxy-phenyl)-amide]"
6,0.06 µM,"CCc1cc(-c2ccc(S(=O)(=O)NCc3c[nH]c4ccccc34)s2)c(C)[nH]c1=O [Example 122D, 5-(5-Ethyl-2-methyl-6-oxo-1,6-dihydro-pyridin-3-yl)-thiophene-2-sulfonic acid (1H-indol-3-ylmethyl)-amide]"
7,1.14 µM,"CCCCNC(=O)c1cccc(-c2cc(CC)c(=O)[nH]c2C)n1 [Example 206, 5′-Ethyl-2′-methyl-6′-oxo-1′,6′-dihydro-[2,3′]bipyridinyl-6-carboxylic acid butylamide]"
8,0.82 µM,"CCc1cc(-c2cncc(C(=O)NCCc3ccccc3O)c2)c(C)[nH]c1=O [Example 232, 5′-Ethyl-2′-methyl-6′-oxo-1′,6′-dihydro-[3,3′]bipyridinyl-5-carboxylic acid [2-(2-hydroxy-phenyl)-ethyl]-amide]"
9,1.27 µM,"CCc1cc(-c2cncc(C(=O)NCc3ccccc3)c2)c(C)[nH]c1=O [Example 220, 5′-Ethyl-2′-methyl-6′-oxo-1′,6′-dihydro-[3,3′]bipyridinyl-5-carboxylic acid benzylamide]"
10,0.5 µM,"CCc1cc(-c2ccc(CNC(=O)c3ccccc3)o2)c(C)[nH]c1=O [Example 271, N-[5-(5-Ethyl-2-methyl-6-oxo-1,6-dihydro-pyridin-3-yl)-furan-2-ylmethyl]-benzamide]"
11,0.83 µM,"CCc1cc(-c2ccc(CNC(C)=O)o2)c(C)[nH]c1=O [Example 274, N-[5-(5-Ethyl-2-methyl-6-oxo-1,6-dihydro-pyridin-3-yl)-furan-2-ylmethyl]-acetamide]"
12,0.32 µM,"CCc1cc(-c2cncc(C(=O)NCC(=O)c3ccccc3)c2)c(C)[nH]c1=O [Example 244, 5′-Ethyl-2′-methyl-6′-oxo-1′,6′-dihydro-[3,3′]bipyridinyl-5-carboxylic acid (2-oxo-2-phenyl-ethyl)-amide]"
13,1.86 µM,"CCc1cc(-c2cncc(C(=O)N(CC)Cc3ccncc3)c2)c(C)[nH]c1=O [Example 235, 5′-Ethyl-2′-methyl-6′-oxo-1′,6′-dihydro-[3,3′]bipyridinyl-5-carboxylic acid ethyl-pyridin-4-ylmethyl-amide]"
14,1.97 µM,"CCc1cc(-c2ccc(CNC(=O)C3CCCC3)o2)c(C)[nH]c1=O [Example 269, Cyclopentanecarboxylic acid [5-(5-ethyl-2-methyl-6-oxo-1,6-dihydro-pyridin-3-yl)-furan-2-ylmethyl]-amide]"
15,4.7 µM,"CCc1cc(-c2cncc(C(=O)NC[C@H](C)O)c2)c(C)[nH]c1=O [Example 229, 5′-Ethyl-2′-methyl-6′-oxo-1′,6′-dihydro-[3,3′]bipyridinyl-5-carboxylic acid (2-hydroxy-propyl)-amide]"
16,0.28 µM,"CCc1cc(-c2ccc(CNCCc3ccc(Cl)c(S(N)(=O)=O)c3)o2)c(C)[nH]c1=O [Example 182C, 2-Chloro-5-(2-{[5-(5-ethyl-2-methyl-6-oxo-1,6-dihydro-pyridin-3-yl)-furan-2-ylmethyl]-amino}-ethyl)-benzenesulfonamide]"
17,1.53 µM,"CCc1cc(-c2cncc(C(=O)NC3CCCC3)c2)c(C)[nH]c1=O [Example 219, 5′-Ethyl-2′-methyl-6′-oxo-1′,6′-dihydro-[3,3′]bipyridinyl-5-carboxylic acid cyclopentylamide]"
